Reference: patent US6667325B1, “Substituted pyrazole compounds” (Teikoku Hormone Mfg. Co., Ltd., priority 1999, dated 2003)

melting point [°C] | Compound
148 to 149.3 | CCn1nc(-c2ccc(F)cc2)c(-c2ccncc2)c1C(=O)N(C)Cc1ccccc1 [Example 75, 1-Ethyl-5-(N-methylbenzylaminocarbonyl)-3-(4-fluorophenyl)-4-(4-pyridyl)pyrazole]
177.6 to 180.2 | Fc1ccc(-c2n[nH]c(COCc3ccccc3)c2-c2ccncc2)cc1 [Example 82, 5(3)-(Benzyloxymethyl)-3(5)-(4-fluorophenyl)-4-(4-pyridyl)pyrazole]
162.3 to 164.8 | COc1ccc(CNC(=O)c2c(-c3ccncc3)c(-c3ccc(F)cc3)nn2C)cc1 [Example 69, 3-(4-Fluorophenyl)-5-(4-methoxybenzylaminocarbonyl)-1-methyl-4-(4-pyridyl)pyrazole]
215.5 to 217.5 | CC(=Cc1[nH]nc(-c2ccc(F)cc2)c1-c1ccncc1)Cc1cccnc1 [Example 27, 3(5)-(4-Fluorophenyl)-5(3)-[2-methyl-3-(3-pyridyl)-1-propenyl]-4-(4-pyridyl)pyrazole]
149.1 to 150.2 | CN(Cc1ccccc1)C(=O)c1c(-c2ccncc2)c(-c2ccc(F)cc2)nn1C [Example 77, 3-(4-Fluorophenyl)-1-methyl-5-(N-methylbenzylaminocarbonyl)-4-(4-pyridyl)pyrazole]
169.2 to 173.5 | CC(OCc1ccccc1)c1[nH]nc(-c2ccc(F)cc2)c1-c1ccncc1 (stereo not drawn) [Example 83, 5(3)-[1-(Benzyloxy)ethyl]-3(5)-(4-fluorophenyl)-4-(4-pyridyl)pyrazole]
136 to 137 | Cn1nc(-c2ccc(F)cc2)c(-c2ccncc2)c1C=CCc1ccccc1 [Example 29, 3-(4-Fluorophenyl)-1-methyl-5-(3-phenyl-1-propenyl)-4-(4-pyridyl)pyrazole]
187 to 188 | Fc1ccc(-c2n[nH]c(C=CCc3cccnc3)c2-c2ccncc2)cc1 [Example 26, 3(5)-(4-Fluorophenyl)-4-(4-pyridyl)-5(3)-[3-(3-pyridyl)-1-propenyl]pyrazole]
143 to 144.5 | Fc1ccc(-c2n[nH]c(CCCc3ccccn3)c2-c2ccncc2)cc1 [Example 40, 3(5)-(4-Fluorophenyl)-4-(4-pyridyl)-5(3)-[3-(2-pyridyl)propyl]pyrazole]
80.5 to 81.1 | Cn1nc(-c2ccc(F)cc2)c(-c2ccncc2)c1CCCc1ccc(N)cc1 [Example 57, 5-[3-(4-Aminophenyl)propyl]-3-(4-fluorophenyl)-1-methyl-4-(4-pyridyl)pyrazole]
148.1 to 151 | Cn1nc(-c2ccc(F)cc2)c(-c2ccncc2)c1CC(=O)Cc1ccccc1 [Example 87, 3-(4-Fluorophenyl)-1-methyl-5-(2-oxo-3-phenylpropyl)-4-(4-pyridyl)pyrazole]
62 to 65 | Cn1nc(-c2ccc(F)cc2)c(-c2ccncc2)c1C(O)CCc1ccccc1 (stereo not drawn) [Example 15, 3-(4-Fluorophenyl)-5-(1-hydroxy-3-phenylpropyl)-1-methyl-4-(4-pyridyl)pyrazole]
207 to 210 | Fc1ccc(-c2n[nH]c(CCCc3cccnc3)c2-c2ccncc2)cc1 [Example 43, 3(5)-(4-Fluorophenyl)-4-(4-pyridyl)-5(3)-[3-(3-pyridyl)propyl]pyrazole]
202.9 to 204.6 | CCN(Cc1ccccc1)C(=O)c1[nH]nc(-c2ccc(F)cc2)c1-c1ccncc1 [Example 74, 5(3)-(N-Ethylbenzylaminocarbonyl)-3(5)-(4-fluorophenyl)-4-(4-pyridyl)pyrazole]
114.9 to 116.7 | CCN(Cc1ccccc1)C(=O)c1c(-c2ccncc2)c(-c2ccc(F)cc2)nn1CC [Example 76, 1-Ethyl-5-(N-ethylbenzylaminocarbonyl)-3-(4-fluorophenyl)-4-(4-pyridyl)pyrazole]
187.7 to 193.5 | O=C(Cc1ccccc1)Cc1[nH]nc(-c2ccc(F)cc2)c1-c1ccncc1 [Example 86, 3(5)-(4-Fluorophenyl)-5(3)-(2-oxo-3-phenylpropyl)-4-(4-pyridyl)pyrazole]
83 to 87 | Cn1nc(-c2ccc(F)cc2)c(-c2ccncc2)c1CCCc1ccccc1 [Example 58, 3-(4-Fluorophenyl)-1-methyl-5-(3-phenylpropyl)-4-(4-pyridyl)pyrazole]
150.1 to 152.6 | COc1ccc(CN(C)C(=O)c2c(-c3ccncc3)c(-c3ccc(F)cc3)nn2C)cc1 [Example 79, 3-(4-Fluorophenyl)-1-methyl-5-(N-methyl-4-methoxybenzylaminocarbonyl)-4-(4-pyridyl)pyrazole]
225.8 to 228.4 | COc1ccc(CN(C)C(=O)c2[nH]nc(-c3ccc(F)cc3)c2-c2ccncc2)cc1 [Example 73, 3(5)-(4-Fluorophenyl)-5(3)-(N-methyl-4-methoxybenzylaminocarbonyl)-4-(4-pyridyl)pyrazole]
144.5 to 146.5 | Fc1ccc(-c2n[nH]c(CCCn3cccn3)c2-c2ccncc2)cc1 [Example 55, 3(5)-(4-Fluorophenyl)-5(3)-[3-(1-pyrazolyl)propyl]-4-(4-pyridyl)pyrazole]
144.4 to 146.8 | CCn1nc(-c2ccc(F)cc2)c(-c2ccncc2)c1C(=O)N(C)Cc1ccccn1 [Example 80, 1-Ethyl-3-(4-fluorophenyl)-5-(N-methyl-2-pyridylmethylaminocarbonyl)-4-(4-pyridyl)pyrazole]
155.5 to 156.5 | Fc1ccc(-c2n[nH]c(CCCc3ccccc3)c2-c2ccncc2)cc1 [Example 31, 3(5)-(4-Fluorophenyl)-5(3)-(3-phenylpropyl)-4-(4-pyridyl)pyrazole]
135.9 to 138.1 | CN(Cc1ccccc1)C(=O)c1c(-c2ccncc2)c(-c2ccc(F)cc2)nn1CCO [Example 81, 3-(4-Fluorophenyl)-1-(2-hydroxyethyl)-5-(N-methylbenzylaminocarbonyl)-4-(4-pyridyl)pyrazole]
129.1 to 131.8 | Cn1nc(-c2ccc(F)cc2)c(-c2ccncc2)c1CCCc1ccc([N+](=O)[O-])cc1 [Example 56, 3-(4-Fluorophenyl)-1-methyl-5-[3-(4-nitrophenyl)propyl]-4-(4-pyridyl)pyrazole]
